# Assay results as given in patent US7176239B2, “Methods and compositions for treatment of Ataxia-telangeictasia” (priority 2003, dated 2007).
# Where a name gives a salt, the structure may show the parent alone.
# How the values were obtained:
# AT cells = AT cells treated with the antioxidant; Gatei et al. 2001; cited from earlier work
# [1] = tested on: AT cells (AT22, ATDM-1, ATDM-2); test: Colony forming-efficiency assay, desferrioxamine/aspirin pretreatment then t-BOOH toxicity; format: cell-based, human; conditions: for resistance to the toxic effects of t-BOOH exposure versus length of pretreatment / resistance to the toxic effects of t-BOOH versus concentration of pretreatment agent: AT22 cells; for resistance to the toxic effects of t-BOOH exposure versus length of pretreatment / resistance to t-BOOH toxicity (cell survival, percentage of untreated cells): desferrioxamine 100 μM, aspirin 0.3 mM; for resistance to the toxic effects of t-BOOH exposure versus length of pretreatment: FIG. 9; for resistance to the toxic effects of t-BOOH versus concentration of pretreatment agent: increasing concentrations of desferrioxamine or aspirin, FIG. 10A/10B; for resistance to t-BOOH toxicity (cell survival, percentage of untreated cells): pretreatment, increasing concentrations of t-BOOH, FIG. 8A
# Protocol: (§1) Colony forming-efficiency experiments were performed as previously described (See R. E. Shackelford et al. The Ataxia telangiectasia Gene Product Is Required for Oxidative Stress-induced G1 and G2 Checkpoint Function in Human Fibroblasts, 276 J. BIOL. CHEM. 21951-21959 (2001)). In brief, exponentially growing cells were plated at 2,000 cells/100 mm tissue culture dish in 10 ml appropriate media, allowed to adhere 6 h, and treated 15 min with varying concentrations of t-BOOH or FeCl2 FeCl2, aspirin, diethylenetriaminepentaacetic acid (DTPA), hygromycin, and desferrioxamine mesylate were obtained from Sigma Chemical Corp (St. Louis, Mo.). Fetal calf serum (FCS) and Dulbecco's Modified Eagle's Medium (DMEM) were obtained from Invitrogen (Rockville, Md.). Culture dishes were obtained from Becton Dickinson (Franklin Lakes, N.J.).
# Following treatment, the pates were washed 2× with media, the media replaced, and colonies fixed and stained after 14 days in culture by water: methanol addition (1:1) containing crystal violet (1 g/L). Colonies consisting of cell clusters containing greater than 50 cells were counted under a dissecting microscope. Unless otherwise noted, where desferrioxamine and/or aspirin pretreatment was employed, the cells were plated in desferrioxamine, aspirin, or desferrioxamine and aspirin, and allowed to adhere for 6 h. The plates were then washed 4× with media and treated with t-BOOH as above. Data indicates survival as a percentage of untreated cells. The AT22 and VA13 tumor cell lines were used at passages 20–40. The primary NHF1, ATDM-1, and ATDM-2 cell strains were used at passages 6–18. pEBS7 and pEBS7-YZ5 cells were used at passages 15–20. All experiments were done at least twice in triplicate. Standard deviations (error bars) were calculated from each experimental data point divided by the mean untreated value and averaged between experiments to obtain the mean standard deviation. (FIGS. 6–10B).
# ATDM-1, and ATDM-2 cells = test: Mitotic delay assay (mitotic index after FeCl2 treatment); format: cell-based, human; conditions: increasing concentrations of FeCl2, 15 min treatment, 2 h culture; NHF1 cells for comparison; fluorescence microscopy; FIG. 3
# Protocol: Mitotic delay assays were performed as previously described (See R. E. Shackelford et al. The Ataxia telangiectasia Gene Product Is Required for Oxidative Stress-induced G1 and G2 Checkpoint Function in Human Fibroblasts, 276 J. BIOL. CHEM. 21951–21959 (2001)). In brief, cells were plated onto 100 mm tissue culture plates and incubated 48–72 h (to approximately 50% confluency). The cells were then treated with FeCl2 for 15 m as in the colony forming-efficiency assay, washed 2× with media, cultured 2 h, and the media was removed. The cells were fixed in 5 ml cold methanol for 10 min and air-dried. The cells were stained with 0.2 μg/ml 4′,6-diamidino-2-phenylindole (DAPI) in water and examined by fluorescence microscopy. The percentage of mitotic cells (mitotic delay) was determined by counts of 5,000 cells. Mitotic delay experiments were performed in triplicate and the standard deviations were calculated as in the colony forming-efficiency assays. (FIG. 3).
# AT cells (AT22) = test: Colony forming-efficiency assay, cell survival with increasing CuCl2; format: cell-based, human; conditions: AT22 versus VA13 cells, increasing concentrations of CuCl2; FIG. 4A
# Protocol: as §1, with “[…],” for “and treated 15 min with varying concentrations of t-BOOH or FeCl2 FeCl2,”
# Following treatment, the pates were washed 2× with media, the media replaced, and colonies fixed and stained after 14 days in culture by water: methanol addition (1:1) containing crystal violet (1 g/L). Colonies consisting of cell clusters containing greater than 50 cells were counted under a dissecting microscope. […] Standard deviations (error bars) were calculated from each experimental data point divided by the mean untreated value and averaged between experiments to obtain the mean standard deviation. […]
# [2] = tested on: AT cells (AT22, ATDM-1, ATDM-2); test: Colony forming-efficiency assay, long-term culture with iron chelating agent or quercetin; format: cell-based, human; conditions: long-term culture (14 days) with increasing concentrations; FIG. 11A, 13A
# Protocol: Preparation of cells is as described previously in Example 1. Colony forming-efficiency experiments were performed as previously described (See R. E. Shackelford et al. The Ataxia telangiectasia Gene Product Is Required for Oxidative Stress-induced G1 and G2 Checkpoint Function in Human Fibroblasts, 276 J. BIOL. CHEM. 21951–21959 (2001)). In brief, exponentially growing cells were plated at 2,000 cells/100 mm tissue culture dish in 10 ml appropriate media with an added iron chelating agent and cultured for 14 days. The resulting colonies were fixed and stained after 14 days culture by water:methanol addition (1:1) containing crystal violet (1 g/L). Colonies consisting of cell clusters containing greater than 50 cells were counted under a dissecting microscope. For experiments involving apoferritin or quercetin pre-exposure on t-BOOH resistance, the cells were allowed to adhere 6 h in increasing aopferritin or quercetin concentrations, washed 4× with 3 ml media, treated with 10 mM t-BOOH, washed 1× with 3 ml media, and allowed to grow for 14 days in 10 ml appropriate media. Data indicates survival as a percentage of untreated cells. […] Standard deviations (error bars) were calculated from each experimental data point divided by the mean untreated value and averaged between triplicate experiments to obtain the mean standard deviation. […]
# [3] = tested on: AT cells (AT22, ATDM-1, ATDM-2); test: Colony forming-efficiency assay, apoferritin/quercetin pretreatment then t-BOOH toxicity; format: cell-based, human; conditions: 6 h pretreatment with increasing concentrations, then 10 mM t-BOOH, FIG. 12A, 14A
# Protocol: (§2) Preparation of cells is as described previously in Example 1. Colony forming-efficiency experiments were performed as previously described (See R. E. Shackelford et al. The Ataxia telangiectasia Gene Product Is Required for Oxidative Stress-induced G1 and G2 Checkpoint Function in Human Fibroblasts, 276 J. BIOL. CHEM. 21951–21959 (2001)). In brief, exponentially growing cells were plated at 2,000 cells/100 mm tissue culture dish in 10 ml appropriate media with an added iron chelating agent and cultured for 14 days. The resulting colonies were fixed and stained after 14 days culture by water:methanol addition (1:1) containing crystal violet (1 g/L). Colonies consisting of cell clusters containing greater than 50 cells were counted under a dissecting microscope. For experiments involving apoferritin or quercetin pre-exposure on t-BOOH resistance, the cells were allowed to adhere 6 h in increasing aopferritin or quercetin concentrations, washed 4× with 3 ml media, treated with 10 mM t-BOOH, washed 1× with 3 ml media, and allowed to grow for 14 days in 10 ml appropriate media. Data indicates survival as a percentage of untreated cells. The AT22 and VA13 tumor cell lines were used at passages 20–40. The primary NHF1, ATDM-1, and ATDM-2 cell strains were used at passages 6–19. All experiments were done at least twice in triplicate. Standard deviations (error bars) were calculated from each experimental data point divided by the mean untreated value and averaged between triplicate experiments to obtain the mean standard deviation. (FIGS. 11A–14C).
# [4] = tested on: normal cells (VA13, NHF1); test: as above; format: cell-based, human; conditions: 6 h pretreatment with increasing concentrations, then 10 mM t-BOOH, FIG. 12A, 14A
# Protocol: as §2
compound,measurement,setting,value
O=C(O)CCCCC1CCSS1 (stereo not drawn) [a-lipoic acid],genotoxic stress-induced proteins,AT cells,lowered
"CC(=O)N(O)CCCCCNC(=O)CCC(=O)N(O)CCCCCNC(=O)CCC(=O)N(O)CCCCCN [desferrioxamine, desferrioxamine mesylate]",resistance to the toxic effects of t-BOOH exposure versus length of pretreatment,[1],increases with longer exposure
same,resistance to the toxic effects of t-BOOH versus concentration of pretreatment agent,[1],increase the resistance
same,"resistance to t-BOOH toxicity (cell survival, percentage of untreated cells)",[1],increased resistance to t-BOOH toxicity
[Cl][Fe][Cl] [FeCl2],"mitotic activity (percentage of the mitotic index of the mock-treated population), G2 checkpoint","ATDM-1, and ATDM-2 cells",induces a pATM-dependent G2 checkpoint
CC(=O)Oc1ccccc1C(=O)O [aspirin],resistance to the toxic effects of t-BOOH exposure versus length of pretreatment,[1],increases with longer exposure
same,resistance to the toxic effects of t-BOOH versus concentration of pretreatment agent,[1],increase the resistance
same,"resistance to t-BOOH toxicity (cell survival, percentage of untreated cells)",[1],increased resistance to t-BOOH toxicity
[Cl][Cu][Cl] [CuCl2],"cell survival (percentage of untreated cells), sensitivity to CuCl2",AT cells (AT22),increased sensitivity
O=c1c(O)c(-c2ccc(O)c(O)c2)oc2cc(O)cc(O)c12 [quercetin],"plating efficiency (cell survival, percentage of untreated cells)",[2],increases the plating efficiency
same,"resistance to t-BOOH toxicity (cell survival, percentage of untreated cells)",[3],increased resistance to t-BOOH toxicity
same,"resistance to t-BOOH toxicity (cell survival, percentage of untreated cells)",[4],increased resistance to t-BOOH toxicity
apoferritin,"plating efficiency (cell survival, percentage of untreated cells)",[2],increases the plating efficiency
same,"resistance to t-BOOH toxicity (cell survival, percentage of untreated cells)",[3],increased resistance to t-BOOH toxicity
same,"resistance to t-BOOH toxicity (cell survival, percentage of untreated cells)",[4],increased resistance to t-BOOH toxicity
